In patent US12357654B2, “Application of glucan in preparation of drug” (Qingdao Conson Pharmaceutical Co., Ltd., priority 2019, dated 2025):

Columns and labels:
[1] = test system: lymphocytes in peripheral blood; assay: Relative lymphocyte concentration in peripheral blood by FACS, B16 model with anti-PD-1 antibody; assay type: in vivo, C57BL/6J mice; conditions: 8 mg/kg β-1,3/1,6-glucan combined with PD-1 antibody, versus PD-1 antibody alone; FIG. 4
Protocol: A cell suspension of 3×10^5 mouse melanoma cell line B16 (presented by PerkinElmer) was injected subcutaneously into C57BL/6J mice (female, 6-8 weeks old, purchased from Jinan Pengyue Experimental Animal Company). The administration experiments were performed about 4 days after implantation when B16 tumors have grown to be palpable. […] Tumor volumes were evaluated and tumor weights were recorded. After sacrifice of mice, blood and tumor samples were collected for flow cytometric analysis.
The experimental method was the same as in Example 1. On day 14, blood was taken from the heart after animal sacrificed, and placed in EDTA-anticoagulation tubes. After mixing, 50 μl of whole blood was taken. 5 μl of GFP microspheres were added to each sample for erythrocyte lysis.
(§1) The single-cell suspensions were blocked with blocking buffer (20% FBS, 1:100 CD16/CD32 antibody and 1:100 rat IgG) for 20 min, and incubated and staining with the corresponding immune cell surface protein antibodies (CD4-BV510, CD8-PerCP-Cy5.5, CD19-APC, CD3-FITC) for 30 minutes at 4° C. Analysis of immune cell population ratios was performed by FACS Arial III (BD Biosciences). The specific procedure was delineating the cell population in the FSC/SSC quadrant, delineating the single cell population by FSC-H and FSC-A, and delineating the corresponding immune cells by immune cell surface markers, and calculating the relative immune cell concentration.

[2] = test system: immune cell subpopulations in blood and tumors; assay: Flow cytometric analysis of immune cell subpopulations in blood and tumors, B16 model with anti-PD-1 antibody; assay type: in vivo, C57BL/6J mice
Protocol: (§2) A cell suspension of 3×10^5 mouse melanoma cell line B16 (presented by PerkinElmer) was injected subcutaneously into C57BL/6J mice (female, 6-8 weeks old, purchased from Jinan Pengyue Experimental Animal Company). The administration experiments were performed about 4 days after implantation when B16 tumors have grown to be palpable. Mice were divided into four groups and treated with vehicle or β-1,3/1,6-glucan (4 mg/kg, i.v., twice a week) alone, or in combination with anti-PD-1 antibody (anti-mouse PD-1 antibody purchased from BioxCell, 200 μg per mouse, i.v., once a week). Tumor volumes were evaluated and tumor weights were recorded. After sacrifice of mice, blood and tumor samples were collected for flow cytometric analysis.
Blood samples were collected by cardiac puncture, collected into EDTA-anticoagulation tubes. 50 μl of whole blood was taken for blood analysis, 50 μl of whole blood was taken for erythrocyte lysis (erythrocyte lysis buffer, Meltenyi), and the remaining whole blood was centrifuged at 3500 rpm for 7 min and the plasma was taken and stored at −80° C. Spleens and thymus were weighed for recording. Subcutaneous tumors of mice, about 0.2-0.5 g of tumors tissues, were taken, and single cell suspensions from the tumor samples were obtained by Mouse Tumor Dissociation Kit (Meltenyi). The blood cells after erythrocyte lysis as well as the dissociated tumor cell suspensions were subjected to subsequent processing, as well as flow cytometric detection
The single-cell suspensions were blocked with blocking buffer (20% FBS, 1:100 CD16/CD32 antibody and 1:100 rat IgG) for 20 min, and incubated and stained with the corresponding immune cell surface protein antibodies (CD11 b-PE, CD4-BV510, CD8-PerCP-Cy5.5, CD19-APC, CD3-FITC, CD206-PE-Cy7, Ly6C-APC) for 30 minutes at 4° C. Analysis of immune cell population ratios was performed by FACS
Arial III (BD Biosciences). The specific procedure was delineating the cell population in the FSC/SSC quadrant, delineating single cell population by FSC-H and FSC-A, and delineating corresponding immune cells by immune cell surface markers, and calculating the cell ratio or relative concentration.
(§3) Combination treatment also upregulates pro-inflammatory monocyte-derived macrophages (CD11b+Ly6Chi, FIG. 1E) in the peripheral blood. […] In addition, it was detected that the combination application of β-1,3/1,6-glucan and PD-1 antibodies enhances the percentage of CD4 and CD8 T cells in the blood and tumor (FIG. 2). It was shown that β-1,3/1,6-glucan and anti-PD-1 antibodies synergistically increase tumor infiltration of pro-inflammatory macrophages, decrease the percentage of immunosuppressive TAM, and increase the ratio of acquired immune cells T and B cells, resulting in building up a more pro-inflammatory and anti-tumoral tumor microenvironment.

leukocytes = assay: Immune cell concentration by hematology analyzer, B16 model after radiotherapy; assay type: in vivo, C57BL/6J mice; conditions: local radiotherapy 10 Gy, glucan by tail vein once a week, FIGS. 8-15
Protocol: A cell suspension of 3×10^5 mouse melanoma cell line B16 (presented by PerkinElmer) was injected subcutaneously into C57BL/6J mice (female, 6-8 weeks old, purchased from Jinan Pengyue Experimental Animal Company)(Overwijk & Restifo, 2001). About 5 days after tumor implantation, local radiotherapy (tumor injection area, 10 Gy) was applied. On day 6 and day 14, vehicle or β-1,3/1,6-glucan was administered (tail vein injection, once a week), and on day 17, after the animals were sacrificed, tumor weight was measured. Blood was taken from the heart after animal sacrificed, placed into EDTA-anticoagulation tubes. After mixing, 50 μl of whole blood was taken and the immune cell concentration was measured by a hematology analyzer.

[3] = test system: CD4, CD8 and CD19 cells in peripheral blood; assay: Relative CD4, CD8, CD19 cell concentration in peripheral blood by FACS, B16 model after radiotherapy; assay type: in vivo, C57BL/6J mice; conditions: 8 mg/kg β-1,3/1,6-glucan after radiotherapy, FIG. 16
Protocol: On day 14, blood was taken from the heart after animals were sacrificed, and placed in EDTA-anticoagulation tubes. After mixing, 50 μl of whole blood was taken. 5 μl of GFP microspheres were added to each sample for erythrocyte lysis.
as §1, with “CD19-APC)” for “CD19-APC, CD3-FITC)”, “Anal” for “Arial”

[4] = test system: mouse melanoma cell line B16; assay: B16 syngeneic tumor model with carboplatin chemotherapy: tumor volume, tumor weight; assay type: in vivo, C57BL/6J mice; conditions: BG136 4 mg/kg tail vein with carboplatin 30 mg/kg i.p. twice a week; sacrificed day 15; FIGS. 17-21
Protocol: (§4) A cell suspension of 3×10^5 mouse melanoma cell line B16 (presented by PerkinElmer) was injected subcutaneously into C57BL/6J mice (females, 6-8 weeks old, purchased from Jinan Panyue Experimental Animal Company) (Overwijk & Restifo, 2001). About 2 days after tumor implantation, carboplatin (30 mg/kg, twice a week) was injected intraperitoneally and BG136 (4 mg/kg) or lentinan LNT (2 mg/kg) was injected via the tail vein, and tumor volume were measured during administration, and on day 15, after animals were sacrificed, tumor weight was measured. Blood was taken from the heart after animals were sacrificed, placed in EDTA-anticoagulation tubes. After mixing, 50 μl of whole blood was taken and the immune cell concentration was measured by a hematology analyzer.

leukocytes and platelets = assay: Leukocytes and platelets by hematology analyzer, B16 model with carboplatin chemotherapy; assay type: in vivo, C57BL/6J mice; conditions: BG136 4 mg/kg tail vein with carboplatin 30 mg/kg i.p. twice a week; day 15; FIGS. 17-21
Protocol: as §4

[5] = test system: mouse melanoma cell line B16; assay: B16 syngeneic tumor model after local radiotherapy: tumor volume, tumor weight; assay type: in vivo, C57BL/6J mice; conditions: local radiotherapy 10 Gy day 5; glucan by tail vein once a week (day 6, day 14); sacrificed day 17; FIGS. 5-7
Protocol: A cell suspension of 3×10^5 mouse melanoma cell line B16 (presented by PerkinElmer) was injected subcutaneously into C57BL/6J mice (female, 6-8 weeks old, purchased from Jinan Pengyue Experimental Animal Company)(Overwijk & Restifo, 2001). About 5 days after tumor implantation, local radiotherapy (tumor injection area, 10 Gy) was applied. On day 6 and day 14, vehicle or β-1,3/1,6-glucan was administered (tail vein injection, once a week), during this period, tumor volume and mouse body weight were measured, and on day 17, after the animals were sacrificed, tumor weight was measured.

platelets = assay: Platelet concentration by hematology analyzer, B16 model with anti-PD-1 antibody; assay type: in vivo, C57BL/6J mice; conditions: blood day 14, FIG. 3
[6] = test system: mouse melanoma cell line B16; assay: B16 syngeneic tumor model, β-1,3/1,6-glucan with anti-PD-1 antibody: tumor volume, tumor weight, body weight; assay type: in vivo
Protocol: as §2, §3

[7] = combination with PD-1 antibody, FIG. 2
[8] = combination with anti-PD-1 antibody, flow cytometry, FIG. 1D
[9] = combination with anti-PD-1 antibody, within the tumor, FIG. 1F

With β-1,3/1,6-glucan the “relative concentration of CD3 in blood” value [1] was “further increase”, the “relative concentration of CD4 in blood” value [1] was “further increase” and the “relative concentration of CD8 in blood” value [1] was “further increase”. The “relative concentration of CD19 in blood” value [1] was “further increase”, the “percentage of immunosuppressive tumor-associated macrophages TAM (CD11b+CD206+)” value ([2]; combination treatment compared with anti-PD-1 antibody alone, within the tumor, FIG. 1G) was “reduced” and the “percentage of CD4 T cells in the blood and tumor” value [2, 7] was “enhances”. For the same substance, the “percentage of CD8 T cells in the blood and tumor” value [2, 7] was “enhances”, the “pro-inflammatory monocyte-derived macrophages (CD11b+Ly6Chi) in the peripheral blood” value ([2]; combination with anti-PD-1 antibody, FIG. 1E) was “upregulates” and the “percentage of CD11b+ cells in the blood” value [2, 8] was “decreases”. For the same substance, the “percentage of CD19+ cells in the blood” value [2, 8] was “increases”, the “tumor infiltration of myeloid cells (CD11b+)” value [2, 9] was “more infiltration” and the “tumor infiltration of pro-inflammatory macrophages (CD11b+Ly6Chi)” value [2, 9] was “more infiltration”. For the same substance, the “concentration of immune cells in blood after radiotherapy” value (leukocytes) was “increasing the concentration of immune cells”, the “cell concentration of CD4 after radiotherapy” value [3] was “increases” and the “cell concentration of CD8 after radiotherapy” value [3] was “increases”. For the same substance, the “cell concentration of CD19 after radiotherapy” value [3] was “increases”, the “tumor suppressive effect in combination with carboplatin” value [4] was “enhances the tumor suppressive effect of carboplatin” and the “decrease in platelets after carboplatin administration” value (leukocytes and platelets) was “reverses”. The “immune response / immunosuppression after carboplatin administration (immune cell concentration)” value (leukocytes and platelets) was “reverses the immunosuppression”, the “anti-tumor effect in combination with radiotherapy (tumor volume, tumor weight)” value [5] was “enhances the anti-tumor effect of radiotherapy” and the platelet concentration (platelets; single agent alone) was “does not affect”. For the same substance, the “platelet concentration, platelet-lowering side effect of PD-1 antibody” value (platelets; β-1,3/1,6-glucan in combination with PD-1 antibody) was “reverses the platelet-lowering side effect”, the “body weight and death of mice during treatment” value ([6]; combination of β-1,3/1,6-glucan 4 mg/kg and anti-PD-1 antibody 200 μg/mouse, FIG. 1C) was “no significant changes” and the “tumor growth inhibition, combination versus single treatment” value ([6]; β-1,3/1,6-glucan 4 mg/kg i.v. twice a week combined with anti-PD-1 antibody 200 μg/mouse i.v. once a week, FIG. 1A, 1B) was “more effectively inhibits tumor growth than single treatment”. For the same substance, the “anti-PD-1 antibody-induced tumor regression” value ([6]; β-1,3/1,6-glucan 4 mg/kg i.v. twice a week combined with anti-PD-1 antibody 200 μg/mouse i.v. once a week, sacrificed day 14, FIG. 1A, 1B) was “enhances anti-PD-1 antibody-induced tumor regression”.
